From patent publication US5567716A, “Trans and cis traumatic acid salts having cicatrizant activity associated to bacteriostatic, antiviral, antibiotic or antifungal activity” (priority 1992, dated 1996)

Experiments:
3T3 fibroblasts = experiment: Cellular proliferation of 3T3 fibroblasts, neutral red colorimetry (1.1a); format: cell-based, Mice
Experimental: Experiments on 3T3 fibroblasts
Mice 3T3 fibroblasts cultures sown at a 40.000/ml concentration on plates having 6 wells in a DMEM culture medium enriched with 10% calf serum are used. After 24 hours culture, the 90 prepared wells are divided in order to allow the analyses of the compounds of the invention, every compound to be tested being used respectively at a concentration of 0.1, 1 and 10 μg/ml by subsequent evaluations after 48 and 72 hours of incubation.
Hexadecyltrimethylammoniun (ETA) traumatare: solubilized in water and brought to the desired final concentrations of 0.1. 1 and 10 μg/ml by progressive dilutions;
Ethanolamine traumatate: solubilized in water and brought to the final concentrations of 0.1, 1 and 10 μg/ml by progressive dilutions;
Traumatic acid: neutralized with sodium hydroxyde and solubilized in water, then brought to the final concentrations of 0.1, 1 and 10 μg/ml by progressive dilutions with the culture medium.
The compounds are added to the cells after 24 hours culture. The cells number is measured by colorimetry with the neutral red intravital stain after 24, 48, 72 hours of incubation.

[1] = Physical chemical characteristics: solubility in water and organic solvents
E. Coli ATCC.35218 = experiment: Antibacterial activity, diffusion method in agar-germs (2.a); format: cell-based
Experimental: (§1) In a Tryprone Soy Agar diffusion medium ATCC (American Type Culture Collection) standard bacterial strains are inoculated, preparing a final solution of 10^6 cfu/g (colony forming unities) of the following strains:
(§2) Every plate contains 20 ml of a medium where 2 equidistant wells having a standard diameter are Formed and in each of these wells […] of the above described bacterial solution are inoculated. 2 plates are prepared for every couple of compounds to be tested at different concentrations, and For every strain, and each of these plates is compared with a white (sterile demineralized water inoculum). After the inoculum, the plates are placed in the refrigerator to favour diffusion and temporaneously blocking bacterial growth.
(§3) The compounds hexadecyltrimethylammonium traumatate and benzyldimethylhexadecylammonium traumatare respectively versus hexadecyl trimethylammonium bromide and benzyldimethylhexadecylammonium chloride are solubilized in demineralized water to Form solutions at the concentrations: 0.1; 0.5; and 1%.
(§4) The antibacterial effect is evaluated by measuring bacterial diffusion halo around the well vs white (halo absence).

PS Maltophila ATCC.13637 = experiment: as above; format: cell-based
Experimental: as §1, §2, §3, §4

[2] = system: Pseudomonas Aeruginosa ATCC.35422; experiment: as above; format: cell-based
Experimental: as §1, §2, §3, §4

[3] = system: Aspergillus Niger ATCC 16404; experiment: as above; format: cell-based; set-up: unit not given here
Experimental: as §1, §2, §3, §4

[4] = system: Candida Albicans ATCC.10231; experiment: as above; format: cell-based; set-up: unit not given here
Experimental: as §1, §2, §3, §4

PS Cepacia ATCC.25416 = experiment: as above; format: cell-based; set-up: unit not given here
Experimental: as §1, §2, §3, §4

[5] = system: Stafilococcus Aureus ATCC.65380; experiment: as above; format: cell-based; set-up: unit not given here
Experimental: as §1, §2, §3, §4

[6] = system: Stafilococcus Epidermidis ATCC.14990; experiment: as above; format: cell-based; set-up: unit not given here
Experimental: as §1, §2, §3, §4

[7] = system: Streptococcus Fecalis ATCC.291212; experiment: as above; format: cell-based; set-up: unit not given here
Experimental: as §1, §2, §3, §4

Structure (SMILES) | bacterial diffusion halo (E. Coli ATCC.35218; sol. 0.1%) | bacterial diffusion halo (E. Coli ATCC.35218; sol. 0.5%) | bacterial diffusion halo (E. Coli ATCC.35218; sol. 1%) | bacterial diffusion halo (PS Maltophila ATCC.13637; sol. 0.1%) | bacterial diffusion halo (PS Maltophila ATCC.13637; sol. 0.5%) | bacterial diffusion halo (PS Maltophila ATCC.13637; sol. 1%) | bacterial diffusion halo ([2]; sol. 0.1%) | bacterial diffusion halo ([2]; sol. 0.5%) | bacterial diffusion halo ([2]; sol. 1%) | bacterial diffusion halo ([3]; sol. 0.1%) | bacterial diffusion halo ([3]; sol. 0.5%) | bacterial diffusion halo ([3]; sol. 1%) | bacterial diffusion halo ([4]; sol. 0.1%) | bacterial diffusion halo ([4]; sol. 0.5%) | bacterial diffusion halo ([4]; sol. 1%) | bacterial diffusion halo (PS Cepacia ATCC.25416; sol. 0.1%) | bacterial diffusion halo (PS Cepacia ATCC.25416; sol. 0.5%) | bacterial diffusion halo (PS Cepacia ATCC.25416; sol. 1%) | bacterial diffusion halo ([5]; sol. 0.1%) | bacterial diffusion halo ([5]; sol. 0.5%) | other results
NCCO.O=C(O)/C=C/CCCCCCCCC(=O)O [ethanolamine traumatate, ethanolamine trans-traumatate] |  |  |  |  |  |  |  |  |  |  |  |  |  |  |  |  |  |  |  |  | effect on cells proliferation (3T3 fibroblasts; 0.1 μg/ml, in words): able to affect cells proliferation according to a not statistically significant trend; effect on cellular proliferation (3T3 fibroblasts; 1 μg/ml, in words, ETA salt > ethanolamine salt = traumatic acid): able to increase cellular proliferation; cells numeration (colorimetric, neutral red) (3T3 fibroblasts; 24 hours of incubation, 0.1 (head: μg/ml), control 0.579 ± 0.021): 0.562 ± 0.013; cells numeration (colorimetric, neutral red) (3T3 fibroblasts; 24 hours of incubation, 1.0 (head: μg/ml), control 0.579 ± 0.021): 0.609 ± 0.033; cells numeration (colorimetric, neutral red) (3T3 fibroblasts; 24 hours of incubation, 10.0 (head: μg/ml), control 0.579 ± 0.021): 0.553 ± 0.027; cells numeration (colorimetric, neutral red) (3T3 fibroblasts; 48 hours of incubation, 0.1 (head: μg/ml), control 1.334 ± 0.050): 1.415 ± 0.106; cells numeration (colorimetric, neutral red) (3T3 fibroblasts; 48 hours of incubation, 1.0 (head: μg/ml), control 1.334 ± 0.050): 1.435 ± 0.082; cells numeration (colorimetric, neutral red) (3T3 fibroblasts; 48 hours of incubation, 10.0 (head: μg/ml), control 1.334 ± 0.050, ** p < 0.01 significant reduction): 1.415 ± 0.132; cells numeration (colorimetric, neutral red) (3T3 fibroblasts; 72 hours of incubation, 0.1 (head: μg/ml), control 2.360 ± 0.125): 2.382 ± 0.039; cells numeration (colorimetric, neutral red) (3T3 fibroblasts; 72 hours of incubation, 1.0 (head: μg/ml), control 2.360 ± 0.125): 2.463 ± 0.100; cells numeration (colorimetric, neutral red) (3T3 fibroblasts; 72 hours of incubation, 10.0 (head: μg/ml), control 2.360 ± 0.125, ** p < 0.01 significant reduction): 2.408 ± 0.085; time necessary for the cells to reach the confluence (3T3 fibroblasts; side control experiment, ETA and ethanolamine salts > traumatic acid): reduce the time normally necessary for the cells to reach the confluence; solubility ([1]; ethanol, organic solvent or mixture): > 10000 µg/mL; solubility ([1]; water): > 10000 µg/mL
CCCCCCCCCCCCCCCC[N+](C)(C)Cc1ccccc1.[Cl-] [BMA Chloride, benzyldimethylhexadecylammonium chloride, reference compound] | n.h. | n.h. | 13 | n.h. | n.h. | 15 | n.h. | 12 | 14 | 13 | 16 | 19 | 13 | 15 | 16 | 12 | 15 | 15 | 17 | 22 | bacterial diffusion halo ([5]; sol. 1%): 22; bacterial diffusion halo ([6]; sol. 0.1%): 15; bacterial diffusion halo ([6]; sol. 0.5%): 18; bacterial diffusion halo ([6]; sol. 1%): 19; bacterial diffusion halo ([7]; sol. 0.1%): 12; bacterial diffusion halo ([7]; sol. 0.5%): 14; bacterial diffusion halo ([7]; sol. 1%): 15
Clc1ccc(COC(C[n+]2cc[nH]c2)c2ccc(Cl)cc2Cl)c(Cl)c1.Clc1ccc(COC(C[n+]2cc[nH]c2)c2ccc(Cl)cc2Cl)c(Cl)c1.O=C([O-])/C=C/CCCCCCCCC(=O)[O-] (racemic) [miconazole trans-traumatate] |  |  |  |  |  |  |  |  |  |  |  |  |  |  |  |  |  |  |  |  | organic solvent solubility ([1]; in ethanol): > 10 mg/mL; solubility in water ([1]; water): > 10 mg/mL
CCCCCCCCCCCCCCCC[N+](C)(C)C.[Br-] [ETA Bromide, hexadecyltrimethylammonium bromide, reference compound] | n.h. | 13 | 15 | n.h. | 15 | 21 | n.h. | n.h. | n.h. | 19 | 22 | 22 | 19 | 24 | 25 | 18 | 19 | 22 | 21 | 24 | bacterial diffusion halo ([5]; sol. 1%): 24; bacterial diffusion halo ([6]; sol. 0.1%): 20; bacterial diffusion halo ([6]; sol. 0.5%): 22; bacterial diffusion halo ([6]; sol. 1%): 22; bacterial diffusion halo ([7]; sol. 0.1%): 20; bacterial diffusion halo ([7]; sol. 0.5%): 22; bacterial diffusion halo ([7]; sol. 1%): 22
